Reference: patent US12385017B2, “Acute respiratory distress syndrome therapeutic agent” (LTT Bio-Pharma Co., Ltd., priority 2015, dated 2025)
Where two headings read alike, the source gives them in different places.

Legend:
[1] = tested on: CLP-induced systemic inflammation; experiment: CLP-induced systemic inflammation (plasma inflammatory cytokines); type: in vivo, mouse; conditions: male ICR mice, drug once before CLP, plasma 8 hours after CLP
Method: (§1) A mouse was anesthetized with pentobarbital (10 mg/kg, intraperitoneally) and a small abdominal midline incision was made to expose the cecum thereof. Subsequently, the cecum was ligated at approximately 2 cm with a silk thread and punctured twice with an 18 G needle (manufactured by Terumo Corporation). Then, the abdomen was closed.
Sham mice (sham operation group) were subjected to the same operation except the ligation and puncture of the cecum. […]
The levels of BUN and creatinine in blood were measured by using a DRI-CHEM slide and LabAssay creatinine, respectively, according to the protocols. The level of inflammatory cytokines in plasma was measured by an Elisa kit according to the protocol.
A CLP operation or a sham operation was performed on male ICR mice.
Drugs were administered once before the CLP operation or the sham operation. […] Sivelestat (mg/kg) was intraperitoneally administered. EBD (Evans blue dye) (30 mg/kg) was administered intravenously 8 hours after the CLP operation. Plasma samples were prepared and the level of inflammatory cytokines in plasma was measured.
A CLP operation or a sham operation was performed on a male ICR mouse. […] A plasma sample was prepared 8 hours after the CLP investigation and the levels of BUN and creatinine (Test A) and the level of inflammatory cytokines (Test B) were measured.
A CLP operation or a sham operation was performed on a male ICR mouse. NAC (mg/kg) was administered intraperitoneally or unmodified SOD (kU/kg) was administered intravenously, once before the CLP operation. A plasma sample was prepared 8 hours after the CLP operation and the levels of BUN and creatinine (Test A) and the level of inflammatory cytokines (Test B) were measured.

[2] = tested on: reactive oxygen species (ROS)
Method: Measurement of reactive oxygen species (ROS) in a mouse was performed by in vivo imaging analysis with some modifications.
An imaging system (Lumazone, in vivo imaging system, SHOSHIN EM, Okazaki, Japan) including a chamber equipped with an electron multiplying CCD camera was used. L-012 (in saline), which is a luminescent probe, was administered to the mouse intravenously at 75 mg/kg.
In the case of the LPS and MV models, the mouse was euthanized 5 minutes after injection of L-012, and the lung thereof was anatomized promptly and imaged (five-minute intervals).
The data were analyzed by using SlideBook6 software (Intelligent Imaging Innovations, Inc., Denver, CO).
CLP operation (Tests A and B), LPS administration (Tests C and D), and MV treatment (Tests E and F) were performed as described above. […] A luminescent probe (L-012) (75 mg/kg) was administered 4 hours after the CLP operation, 6 hours after the LPS administration, and 2 hours after the MV treatment. An abdominal cavity (Test A) or a lung (Tests C and E) of the mouse was imaged using a Lumazone in vivo imaging system. The sum intensity of reactive oxygen species (ROS) was determined by Slide Book6 software (Tests B, D, and F).

[3] = tested on: lipopolysaccharide (LPS)-induced lung injury
Method: A mouse was anesthetized with isoflurane and 1 mg/kg LPS (in 0.9% NaCl) was administered thereto intratracheally once using a micropipette (P200). […] In the case of sivelestat, 10 or 100 mg/kg of sivelestat (in 0.9% NaCl) was administered intraperitoneally using a 21 G needle.
(§2) For a quantitative examination of the permeability of an organ, Evans blue (EBD) (30 mg/kg) was administered to the mouse intravenously 2 hours before sacrificing the mouse. Tissue (lung, liver, and kidney) specimens were cut into pieces and incubated with a formaldehyde solution for 24 hours at 60° C. The specimens were centrifuged to obtain supernatants and the quantity of EBD was determined by using absorbance at 620 nm of the specimens.
BALF was collected by inserting a cannula into a trachea and performing lavage twice with 1 mL of 50 U/mL heparin (in sterile 0.9% NaCl). Usually, about 1.8 mL of BALF was collected from each mouse. The amount of proteins in BALF was determined by a Bradford assay. The level of inflammatory cytokines was determined by the Elisa kit as described above.
A tissue specimen was fixed in 10% neutral buffered formalin for 24 hours and then embedded in paraffin before being cut into a section 4 μm thick. The section was stained firstly with Mayer's hematoxylin and secondly with 1% alcoholic eosin solution (H&E staining). The specimen was mounted with malinol (mounting medium) and scanned using a NanoZoomer-XR digital slide scanner (Hamamatsu Photonics K.K.).
All the scanned images were analyzed using NDP-view2 software (Hamamatsu Photonics K.K.) and Image J software.
LPS (1 mg/kg) or vehicle (control) was administered once into a trachea of a male ICR mouse.
ESD (Evans blue dye) (30 mg/kg) was injected intravenously 6 hours after a CLP operation. Two hours later, ESD was extracted from the lung and liver and the amount thereof was measured (Test A).
A section of the lung tissue was prepared 24 hours after the LPS administration and was subjected to a histopathological examination (H&E staining) (Test B). The lesion area was determined by ImageJ software (Test C). BALF was prepared 48 hours after the LPS administration and the levels of protein (Test D) and inflammatory cytokines (Test E) were determined.

[4] = tested on: reactive oxygen species (ROS); experiment: In vivo imaging of reactive oxygen species (ROS), CLP model; parameters: species or system mouse; conditions: drug once before CLP, L-012 75 mg/kg 4 hours after the CLP operation
Method: In the case of the CLP model, the mouse was euthanized 2 minutes after injection of L-012, subjected to abdominal midline incision, and imaged (five-minute intervals).
Male ICR mice were subjected to a CLP operation. Dexamethasone (200 μg/mouse) was administered intravenously once before the CLP operation (Tests A and C). Sivelestat (100 mg/kg) was administered intraperitoneally (Tests B and D). […] The sum intensity of ROS was determined by SlideBook6 software (Tests C and D).

[5] = tested on: CLP-induced multiple organ failure; experiment: CLP-induced multiple organ failure (Evans blue vascular permeability, BUN, creatinine); type: in vivo, mouse; conditions: male ICR mice, drug once before CLP, plasma 8 hours after CLP
Method: as §1
(§3) Sham mice (sham operation group) were subjected to the same operation except the ligation and puncture of the cecum.
A mouse was anesthetized with isoflurane and 1 mg/kg LPS (in 0.9% NaCl) was administered thereto intratracheally once using a micropipette (P200). […]
as §2, with “Tissue (lung, liver, and kidney) specimens were cut into pieces and incubated with a formaldehyde solution for 24 hours at 60° C.” left out
The levels of BUN and creatinine in blood were measured by using a DRI-CHEM slide and LabAssay creatinine, respectively, according to the protocols. The level of inflammatory cytokines in plasma was measured by an Elisa kit according to the protocol. […]
Drugs were administered once before the CLP operation or the sham operation. […] Two hours later, EBD was extracted from the kidney and liver and measured. […]

[6] = tested on: mice subjected to cecal ligation and puncture technique (CLP technique); conditions: male ICR mice
Method: as §1, §3

[7] = tested on: mechanical ventilator (MV)-induced lung injury; experiment: Mechanical ventilator (MV)-induced lung injury and change of lung mechanics; type: in vivo, mouse; conditions: male ICR mice
Method: A mechanical ventilator for small animals was used to induce ventilator-induced lung injury (VILI). After a mouse was anesthetized with pentobarbital (10 mg/kg, intraperitoneally), tracheotomy was performed and an 8 mm metal tube was inserted into the trachea thereof. The mouse was mechanically ventilated with a tidal volume of 17.5 mL/kg, a positive end-expiratory pressure of 0 cm H2O, and a rate of 150 breaths/min.
Total respiratory elastance was measured every 30 minutes for 120 minutes by a snapshot technique.
The data were analyzed by using FlexiVent software (version 5.3 SCIREQ).
as §2
Firstly, the wet weight of a lung was measured to determine a wet-to-dry weight ratio of the lung. Then, the lung was dried at 60° C. overnight and reweighed to obtain the dry weight thereof.
A tissue specimen was fixed in 10% neutral buffered formalin for 24 hours and then embedded in paraffin before being cut into a section 4 μm thick. […]
All the scanned images were analyzed using NDP-view2 software (Hamamatsu Photonics K.K.) and Image J software. […]
EBD (Evans blue dye) (30 mg/kg) was simultaneously administered intravenously, extracted from the lung 2 hours after the MV treatment, and measured (Test A).
The wet-to-dry weight ratio of the lung was determined 2 hours after the MV treatment (Test B). […]
The lesion area was determined by ImageJ software (Test D).
Total respiratory elastance was measured every 30 minutes for 120 minutes (Test E). […]
The wet-to-dry weight ratio of the lung was determined 2 hours after the MV treatment (Tests A and C). Total respiratory elastance was measured every 30 minutes for 120 minutes (Tests B and D).

[8] = BALF 48 hours after the LPS administration (FIG. 4E)

| Compound | IL-6 level in plasma [1] | TNF-α level in plasma [1] | reactive oxygen species in the lung (sum intensity, L-012) ([2]; LPS, PC-SOD i.v. once before LPS, L-012 6 hours after the LPS administration) | reactive oxygen species in the lung (sum intensity, L-012) ([2]; MV, PC-SOD i.v. once before MV, L-012 2 hours after the MV treatment) | protein in BALF ([3]; BALF 48 hours after the LPS administration (FIG. 4D)) | IL-6 in BALF [3, 8] | IL-10 in BALF [3, 8] | TNF-α in BALF [3, 8] | histopathological examination of lung tissue (H&E staining) ([3]; lung section 24 hours after the LPS administration (FIG. 4B)) | lesion area of lung (ImageJ) ([3]; lung section 24 hours after the LPS administration (FIG. 4C)) | reactive oxygen species in the abdominal cavity (sum intensity, L-012) [4] | BUN (blood urea nitrogen) level [5] | creatinine level [5] | survival rate ([6]; administration 1, 12, 24, and 48 hours after the CLP operation (FIG. 1B)) | survival rate ([6]; administration immediately before the CLP operation and 12, 24, and 48 hours after (FIG. 1A)) | lung edema (wet-to-dry weight ratio of the lung) ([7]; drug once immediately before MV, 2 hours after the MV treatment) | lung injury (histopathological examination, H&E staining; lesion area) ([7]; lung section 2 hours after the MV treatment (FIG. 5C, D)) | lung elastance (total respiratory elastance) ([7]; measured every 30 minutes for 120 minutes) |
| --- | --- | --- | --- | --- | --- | --- | --- | --- | --- | --- | --- | --- | --- | --- | --- | --- | --- | --- |
| CC(C)(C)C(=O)Oc1ccc(S(=O)(=O)Nc2ccccc2C(=O)NCC(=O)O)cc1 [sivelestat, sivelestat sodium hydrate, reference compound] | failed in suppressing an increase | failed in suppressing an increase |  |  |  |  |  |  |  |  |  |  |  |  |  |  |  |  |
| lecithinized superoxide dismutase [PC-SOD] | suppressed an increase | suppressed an increase | suppressed an increase of reactive oxygen species | suppressed an increase of reactive oxygen species | suppressed an increase of protein | suppressed an increase | suppressed an increase | suppressed an increase | suppressed alveolar hemorrhage, leukocyte infiltration, and lung interstitial edema | reduced a lung disorder area | suppressed an increase of reactive oxygen species | suppressed an increase | suppressed an increase | increased the survival rate | increased the survival rate in a dose-dependent manner | suppressed lung edema | suppressed lung injury | suppressed an increase in lung elastance |
